Assays:
B16F10 melanoma cells = test: B16F10 subcutaneous primary tumor growth in lung metastasis challenge study; format: in vivo, C57BL/6 mice; conditions: by day 17
From the text: Activation of the STING pathway promotes antigen presentation and induces a durable T-cell response, as shown in Examples 11 and 12. Thus, the immune memory response induced by EXOSTING™ may be sufficient to prevent tumor metastasis after a local administration in a primary tumor. To test this hypothesis, exosomes purified from HEK293SF cells overexpressing PTGFRN were loaded with the cyclic dinucleotide 3-3 cAIMPdFSH as described in Example 1. C57BL/6 mice were inoculated subcutaneously with 1×10^6 B16F10 melanoma cells on day zero and challenged with an additional tail vein injection of 1×10^5 B16F10 melanoma cells to seed lung metastases (n=8 mice per group). Five, eight, and eleven days post-inoculation the mice were injected intratumorally at the subcutaneous tumor with PBS, 20 μg 3-3 cAIMPdFSH, 120 ng 3-3 cAIMPdFSH, or either 120 ng, 12 ng, or 1.2 ng 3-3 cAIMPdFSH loaded in PTGFRN-overexpressing exosomes (Exo STING Agonist). […] Lungs from all mice were harvested, imaged, and counted for metastases. […] As little as 12 ng of Exo STING Agonist prevented lung metastasis to the same extent as 20 μg STING Agonist (FIGS. 46B and 47).

[1] = tested on: B16F10 tumor and stroma area; test: IFNβ in situ hybridization and CD8, F4/80 immunohistochemistry in B16F10 tumor sections; format: in vivo, C57BL/6 mice; conditions: 20 μg free
Protocol: Four groups of C57BL/6 mice (5 mice per group) were inoculated subcutaneously with 1×10^6 B16F10 tumor cells. Eight days post-inoculation the mice were injected intratumorally with dose of exosomes, 20 μg of free 3-3 cAIMPdFSH, 0.1 μg of free 3-3 cAIMPdFSH, or 0.1 μg of 3-3 cAIMPdFSH loaded in PTGFN-overexpressing exosomes (EXOSTING™). Half of the mice were injected again intratumorally at day 11 after the inoculation. Four- or 24-hours post-injection of each injection, the tumors were collected, cytokine levels were measured by in situ hybridization, and CD8 or F4/80 positive cells were counted by immunohistochemistry. Tumor area and stroma area were identified histologically. IFNβ gene expression levels in the tumor (FIG. 77A) and stroma (FIG. 77B) area were increased in the 20 μg free STING agonist and 0.1 μg EXOSTING™ groups at 4h after single dose. […] F4/80 positive cells were decreased in 20 μg free STING agonist group, but cells were recovered in 0.1 μg EXOSTING™ group (FIG. 78B).

CT26.CL25 cells = test: CT26.CL25 colorectal tumor growth; format: in vivo, BALB/c mice; conditions: 0.012 μg free, days 13, 16, 19
Protocol: To test and expand in vivo efficacy to other types of tumors, BALB/c mice were inoculated subcutaneously with 5×10^5 CT26.CL25 cells (ATCC®; CRL-2639™), a murine colorectal cancer cell line engineered to stably express beta-galactosidase, or 5×10^5 CT26.WT cells (ATCC®; CRL-2638™) (n=5-7 mice per group). Thirteen, sixteen, and nineteen days post-inoculation the mice were injected intratumorally into CT26.CL25 tumor with exosomes, 0.012 μg of free 3-3 cAIMPdFSH, or 0.012 μg-3 cAIMPdFSH loaded in PTGFRN-overexpressing exosomes and into CT26.WT tumor with PBS, exosomes, 100 μg of free ML RR-S2 CDA, or 0.2 μg-3 cAIMPdFSH loaded in PTGFRN-overexpressing exosomes.

[2] = tested on: B16F10 murine melanoma cells; test: B16F10 tumor growth in C57BL/6 and STING knock-out mice; format: in vivo, C57BL/6 mice and C57BL/6-Tmem173^gt mice
Protocol: To confirm that the effects observed in FIGS. 54-58 were translated to anti-tumor activity, C57BL/6 mice and C57BL/6-Tmem173^gt mice were inoculated subcutaneously with 1×10^6 B16F10 murine melanoma cells (n=5 mice per group). Seven, ten, and thirteen days post-inoculation, the mice were injected intratumorally with PBS, exosomes, 20 μg of free 3-3 cAIMPdFSH, or 0.1 μg of 3-3 cAIMPdFSH loaded in PTGFRN-overexpressing exosomes. Tumor volumes were measured daily until day 19, and animals were sacrificed when tumor volume reached 2000 mm^3.

[3] = tested on: OVA-reactive splenic T-cells; test: OVA-specific memory T-cell response in E.G7-OVA model; format: in vivo, C57BL/6 mice
Protocol: STING pathway agonism in dendritic cells enhances antigen presentation, IFNβ production, and recruits CD8+ memory T-cells to elicit a durable adaptive immune response. To determine whether Exo STING could induce a memory T-cell response to a defined antigen, an antigen-specific T-cell response study was carried out using purified ovalbumin (OVA). C57BL/6 mice were injected intraperitoneally with 200 μg OVA mixed with either PBS, 20 μg ML RR-S2, 0.2 μg ML RR-S2, or 0.2 μg ML RR-S2 loaded in PTGFRN-overexpressing exosomes (n=4-10 mice per group). […] Isolated lymphocytes were analyzed by flow cytometry by measuring binding to immobilized tetrameric MHC class I bound to the OVA peptide SIINFEKL and phycoerythrin (PE) (iTAg Tetramer/PE—H-2 OVA; MBL®, Code #T03000). OVA-reactive memory T-cells were quantified by gating on PE, CD44, and CD8 positivity.
To test this hypothesis, C57BL/6 mice were inoculated subcutaneously with 1×10^6 E.G7-OVA cells (ATCC®; CRL-2113™), a murine T-cell lymphoma cell line engineered to stably express OVA and allow for modeling antigen-specific T-cell responses in mice (n=5 mice per group). […] Splenic T-cells from all groups were isolated and measured for OVA-specific reactivity as described in Example 11.

SMILES	primary tumor growth (B16F10 melanoma cells; 120 ng free)	primary tumor growth (B16F10 melanoma cells; 20 μg intratumoral days 5, 8, 11)	CD8 positive T cells [1]	F4/80 positive cells [1]	level of IFNβ in tumor and stroma area ([1]; 4h after second doses)	IFNβ gene expression in tumor and stroma area ([1]; 4h after single dose)	tumor growth compared to control (CT26.CL25 cells)	tumor regression ([2]; C57BL/6-Tmem173^gt mice, 20 μg free)	tumor regression ([2]; C57BL/6 mice, free, printed 20 g, days 7, 10, 13)	memory T-cell response (OVA-specific) ([3]; 0.2 μg intratumoral)	memory T-cell response (OVA-specific) ([3]; 20 μg intratumoral)
Nc1ncnc2c1ncn2[C@@H]1O[C@@H]2COP(=O)(S)O[C@H]3[C@@H](F)[C@H](n4cnc5c(=O)[nH]cnc54)O[C@@H]3COP(O)(=S)O[C@H]2[C@H]1F (some centres unmarked) [3-3 cAIMPdFSH, 3′3′-cAIMPdFSH]	no tumor regression observed	did not grow	not increased	decreased	significantly decreased	increased	moderately attenuated tumor growth	no tumor regression was observed	dramatically improved tumor regression		
Nc1ncnc2c1ncn2[C@@H]1O[C@@H]2COP(O)(=S)O[C@@H]3C(O)[C@@H](COP(O)(=S)O[C@H]2[C@H]1O)O[C@H]3n1cnc2c(N)ncnc21 (some centres unmarked) [ML RR-S2 CDA]										modest memory T-cell response	potent memory T-cell response
